Reference: patent publication US20110190269A1, “GAMMA SECRETASE MODULATORS” (priority 2010, published 2011)

Each compound was assayed on γ-secretase (assay: Cellular γ-secretase assay (inhibition of Aβ42 secretion)). Conditions: human neuroglioma H4 cells overexpressing human APP, 22 hrs incubation.
Assay type: cell-based
Summary of the method: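 H4 neuroglioma cells overexpressing human APP got a ten-point compound dilution (0.4% DMSO final) for 22 h at 37 °C. Secreted Aβ42 in the supernatant was measured by electrochemiluminescence sandwich immunoassay (capture biotinylated 6E10, detection ruthenylated BAP15). IC50 came from a nonlinear regression fit.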

Row | EC50 | Compound
1 | 0.069 µM | COc1cc(Nc2nc3c(-c4ccc(F)c(F)c4)cc(C4CC4)cn3n2)ccc1-n1cnc(C)c1 [Example 146, [6-Cyclopropyl-8-(3,4-difluoro-phenyl)-[1,2,4]triazolo[1,5-a]pyridin-2-yl]-[3-methoxy-4-(4-methyl-imidazol-1-yl)-phenyl]-amine]
2 | 0.033 µM | COc1cc(Nc2nc3c(-c4ccc(F)c(Cl)c4)cc(C4CC4)cn3n2)ccc1-n1cnc(C)c1 [Example 147, [8-(3-Chloro-4-fluoro-phenyl)-6-cyclopropyl-[1,2,4]triazolo[1,5-a]pyridin-2-yl]-[3-methoxy-4-(4-methyl-imidazol-1-yl)-phenyl]-amine]
3 | 0.09 µM | COc1cc(Nc2nc3c(-c4ccc(F)cc4Cl)cc(C4CC4)cn3n2)ccc1-n1cnc(C)c1 [Example 148, [8-(2-Chloro-4-fluoro-phenyl)-6-cyclopropyl-[1,2,4]triazolo[1,5-a]pyridin-2-yl]-[3-methoxy-4-(4-methyl-imidazol-1-yl)-phenyl]-amine]
4 | 0.37 µM | COc1cc(Nc2nc3c(C4=CCOCC4)cccn3n2)ccc1-n1cnc(C)c1 [Example 149, [8-(3,6-Dihydro-2H-pyran-4-yl)-[1,2,4]triazolo[1,5-a]pyridin-2-yl]-[3-methoxy-4-(4-methyl-imidazol-1-yl)-phenyl]-amine]
